Measurements as given in patent publication US7842856B2, “Herbicide resistance gene, compositions and methods” (The Board of Trustees of the University of Illinois, priority 2005, dated 2010).

Legend:
[1] = tested on: A. tuberculatus R (PPO inhibitor-resistant) parent; test: Herbicide dose-response on whole plants, R parent; assay type: in vivo, Amaranthus tuberculatus (waterhemp); conditions: for GR50 (growth reduction by 50%) R: R line
[2] = tested on: A. tuberculatus F2 and backcross lines; test: Inheritance of resistance: R or S response of F2 and backcross lines to lactofen; assay type: in vivo, Amaranthus tuberculatus
[3] = male F1(R) x female F1(R), lactofen 110 g ai ha^−1 plus 1% COC, 15 days after treatment, N 400
[4] = male F1(R) x female R, lactofen 110 g ai ha^−1, 15 days, N 200
[5] = male F1(R) x female S, lactofen 110 g ai ha^−1, 15 days, N 200
[6] = male F1(S) x female F1(S), lactofen 110 g ai ha^−1, 15 days, N 400
[7] = male F1(S) x female R, lactofen 110 g ai ha^−1, 15 days, N 200
[8] = male F1(S) x female S, lactofen 110 g ai ha^−1, 15 days, N 200

| Compound | GR50 (growth reduction by 50%) R ([1]; 10 DAT) [g ai ha^−1] | GR50 (growth reduction by 50%) R ([1]; 15 DAT, dry weight vs control, plus 1% COC) [g ai ha^−1] | fold higher doses survived compared with S plants ([1]; lines homozygous for resistance vs S plants (FIG. 2; Table 2)) [fold] | Observed numbers R [2, 3] | Observed numbers S [2, 3] | Observed numbers R [2, 4] | Observed numbers S [2, 4] | Observed numbers R [2, 5] | Observed numbers S [2, 5] | Observed numbers R [2, 6] | Observed numbers S [2, 6] | Observed numbers R [2, 7] | Observed numbers S [2, 7] | Observed numbers R [2, 8] | Observed numbers S [2, 8] |
| --- | --- | --- | --- | --- | --- | --- | --- | --- | --- | --- | --- | --- | --- | --- | --- |
| CCOC(=O)C(C)OC(=O)c1cc(Oc2ccc(C(F)(F)F)cc2Cl)ccc1[N+](=O)[O-] (racemic) [Lactofen, (±)-2-ethoxy-1-methyl-2-oxoethyl 5-{2-chloro-4-(trifluoromethyl)phenoxy}-2-nitrobenzoate] | 2.9 | 21 | 53 | 297 | 103 | 200 | 0 | 98 | 102 | 304 | 96 | 200 | 0 | 109 | 91 |
| O=C(O)c1cc(Oc2ccc(C(F)(F)F)cc2Cl)ccc1[N+](=O)[O-] [Acifluorfen, 5-{2-chloro-4-(trifluoromethyl)phenoxy}-2-nitrobezoic acid] | 5.8 |  |  |  |  |  |  |  |  |  |  |  |  |  |  |
